System: MCH receptors
Assay: MCH receptor activity class (method not given)
Settings: MCH receptor activity class 1-3 (percent of control at 10^-7 M or IC50)

SMILES | class
Cc1cccc(C)c1NC(=O)NC[C@H]1CC[C@@H](Nc2nccc(N(C)C)n2)CC1 [compound 2406, N-[(cis-4-{[4-(dimethylamino)pyrimidin-2-yl]amino}cyclohexyl)methyl]-N′-(2,6-dimethylphenyl)urea] | 1 (Class 1: The value of percent of control at 10^−7 M was less than 40% or the value of IC50 was less than 50 nM.)
CN(C)c1ccnc(N[C@H]2CC[C@@H](CNC(=O)Nc3ccc(F)cc3F)CC2)n1 [compound 2407, N-(2,4-difluorophenyl)-N′-[(cis-4-{[4-(dimethylamino)pyrimidin-2-yl]amino}cyclohexyl)methyl]urea] | 2 (Class 2: The value of percent of control at 10^−7 M was from 40% to 60% or the value of IC′50 was from 50 nM to 200 nM.)
CCc1cccc(C)c1NC(=O)NC[C@H]1CC[C@@H](Nc2nccc(N(C)C)n2)CC1 [compound 2408, N-[(cis-4-{[4-(dimethylamino)pyrimidin-2-yl]amino}cyclohexyl)methyl]-N′-(2-ethyl-6-methylphenyl)urea] | 1 (Class 1: The value of percent of control at 10^−7 M was less than 40% or the value of IC50 was less than 50 nM.)
CN(C)c1ccnc(N[C@H]2CC[C@@H](CNC(=O)Nc3ccc(F)cc3)CC2)n1 [compound 2410, N-[(cis-4-{[4-(dimethylamino)pyrimidin-2-yl]amino}cyclohexyl)methyl]-N′-(4-fluorophenyl)urea] | 2 (Class 2: The value of percent of control at 10^−7 M was from 40% to 60% or the value of IC′50 was from 50 nM to 200 nM.)
CSc1ccc(NC(=O)NC[C@H]2CC[C@@H](Nc3nccc(N(C)C)n3)CC2)cc1 [compound 2411] | 3 (Class 3 The value of percent of control at 10^−7 M was more than 60% or the value of IC50 was more than 200 nM.)
CN(C)c1ccnc(N[C@H]2CC[C@@H](CNC(=O)Nc3ccccc3C(F)(F)F)CC2)n1 [compound 2412] | 3 (Class 3 The value of percent of control at 10^−7 M was more than 60% or the value of IC50 was more than 200 nM.)
Cc1cc(C)c(NC(=O)NC[C@H]2CC[C@@H](Nc3nccc(N(C)C)n3)CC2)c(C)c1 [compound 2413, N-[(cis-4-{[4-(dimethylamino)pyrimidin-2-yl]amino}cyclohexyl)methyl]-N′-mesitylurea] | 1 (Class 1: The value of percent of control at 10^−7 M was less than 40% or the value of IC50 was less than 50 nM.)
Cc1ccccc1NC(=O)NC[C@H]1CC[C@@H](Nc2nccc(N(C)C)n2)CC1 [compound 2414] | 3 (Class 3 The value of percent of control at 10^−7 M was more than 60% or the value of IC50 was more than 200 nM.)
CN(C)c1ccnc(N[C@H]2CC[C@@H](CNC(=O)Nc3c(Cl)cc(Cl)cc3Cl)CC2)n1 [compound 2415, N-[(cis-4-{[4-(dimethylamino)pyrimidin-2-yl]amino}cyclohexyl)methyl]-N′-(2,4,6-trichlorophenyl)urea] | 1 (Class 1: The value of percent of control at 10^−7 M was less than 40% or the value of IC50 was less than 50 nM.)
CN(C)c1ccnc(N[C@H]2CC[C@@H](CNC(=O)Nc3c(F)cc(Br)cc3Br)CC2)n1 [compound 2417] | 1 (Class 1: The value of percent of control at 10^−7 M was less than 40% or the value of IC50 was less than 50 nM.)
CCc1cccc(CC)c1NC(=O)NC[C@H]1CC[C@@H](Nc2nccc(N(C)C)n2)CC1 [compound 2418, N-(2,6-diethylphenyl)-N′-[(cis-4-{[4-(dimethylamino)pyrimidin-2-yl]amino}cyclohexyl)methyl]urea] | 1 (Class 1: The value of percent of control at 10^−7 M was less than 40% or the value of IC50 was less than 50 nM.)
CN(C)c1ccnc(N[C@H]2CC[C@@H](CNC(=O)Nc3c(Cl)cccc3C(F)(F)F)CC2)n1 [compound 2419] | 1 (Class 1: The value of percent of control at 10^−7 M was less than 40% or the value of IC50 was less than 50 nM.)
Cc1cccc(Cl)c1NC(=O)NC[C@H]1CC[C@@H](Nc2nccc(N(C)C)n2)CC1 [compound 2420, N-(2-chloro-6-methylphenyl)-N′-[(cis-4-{[4-(dimethylamino)pyrimidin-2-yl]amino}cyclohexyl)methyl]urea] | 1 (Class 1: The value of percent of control at 10^−7 M was less than 40% or the value of IC50 was less than 50 nM.)
CN(C)c1ccnc(N[C@H]2CC[C@@H](CNC(=O)NCc3ccccc3Cl)CC2)n1 [compound 2421] | 3 (Class 3 The value of percent of control at 10^−7 M was more than 60% or the value of IC50 was more than 200 nM.)
CCc1ccccc1NC(=O)NC[C@H]1CC[C@@H](Nc2nccc(N(C)C)n2)CC1 [compound 2423] | 3 (Class 3 The value of percent of control at 10^−7 M was more than 60% or the value of IC50 was more than 200 nM.)
CN(C)c1ccnc(N[C@H]2CC[C@@H](CNC(=O)Nc3ccccc3I)CC2)n1 [compound 2424] | 3 (Class 3 The value of percent of control at 10^−7 M was more than 60% or the value of IC50 was more than 200 nM.)
Cc1cccc(C(C)C)c1NC(=O)NC[C@H]1CC[C@@H](Nc2nccc(N(C)C)n2)CC1 [compound 2425] | 1 (Class 1: The value of percent of control at 10^−7 M was less than 40% or the value of IC50 was less than 50 nM.)

SMILES | class
CC(C)c1ccccc1NC(=O)NC[C@H]1CC[C@@H](Nc2nccc(N(C)C)n2)CC1 [compound 2426] | 3 (Class 3 The value of percent of control at 10^−7 M was more than 60% or the value of IC50 was more than 200 nM.)
Cc1c(NC(=O)NC[C@H]2CC[C@@H](Nc3nccc(N(C)C)n3)CC2)cccc1[N+](=O)[O-] [compound 2427, N-[(cis-4-{[4-(dimethylamino)pyrimidin-2-yl]amino}cyclohexyl)methyl]-N′-(2-methyl-3-nitrophenyl)urea] | 1 (Class 1: The value of percent of control at 10^−7 M was less than 40% or the value of IC50 was less than 50 nM.)
CCCc1ccccc1NC(=O)NC[C@H]1CC[C@@H](Nc2nccc(N(C)C)n2)CC1 [compound 2428, N-[(cis-4-{[4-(dimethylamino)pyrimidin-2-yl]amino}cyclohexyl)methyl]-N′-(2-propylphenyl)urea] | 2 (Class 2: The value of percent of control at 10^−7 M was from 40% to 60% or the value of IC′50 was from 50 nM to 200 nM.)
Cc1cccc(C(C)(C)C)c1NC(=O)NC[C@H]1CC[C@@H](Nc2nccc(N(C)C)n2)CC1 [compound 2429, N-(2-tert-butyl-6-methylphenyl)-N′-[(cis-4-{[4-(dimethylamino)pyrimidin-2-yl]amino}cyclohexyl)methyl]urea] | 1 (Class 1: The value of percent of control at 10^−7 M was less than 40% or the value of IC50 was less than 50 nM.)
CN(C)c1ccnc(N[C@H]2CC[C@@H](CNC(=O)Nc3ccccc3C(C)(C)C)CC2)n1 [compound 2430, N-(2-tert-butylphenyl)-N′-[(cis-4-{[4-(dimethylamino)pyrimidin-2-yl]amino}cyclohexyl)methyl]urea] | 1 (Class 1: The value of percent of control at 10^−7 M was less than 40% or the value of IC50 was less than 50 nM.)
Cc1c(Cl)cccc1NC(=O)NC[C@H]1CC[C@@H](Nc2nccc(N(C)C)n2)CC1 [compound 2431, N-(3-chloro-2-methylphenyl)-N′-[(cis-4-{[4-(dimethylamino)pyrimidin-2-yl]amino}cyclohexyl)methyl]urea] | 1 (Class 1: The value of percent of control at 10^−7 M was less than 40% or the value of IC50 was less than 50 nM.)
CN(C)c1ccnc(N[C@H]2CC[C@@H](CNC(=O)Nc3c(F)cc(Br)cc3F)CC2)n1 [compound 2432] | 1 (Class 1: The value of percent of control at 10^−7 M was less than 40% or the value of IC50 was less than 50 nM.)
CN(C)c1ccnc(N[C@H]2CC[C@@H](CNC(=O)Nc3ccc(Cl)cc3C(F)(F)F)CC2)n1 [compound 2433] | 2 (Class 2: The value of percent of control at 10^−7 M was from 40% to 60% or the value of IC′50 was from 50 nM to 200 nM.)
CN(C)c1ccnc(N[C@H]2CC[C@@H](CNC(=O)Nc3ccc(C#N)cc3)CC2)n1 [compound 2434] | 3 (Class 3 The value of percent of control at 10^−7 M was more than 60% or the value of IC50 was more than 200 nM.)
CN(C)c1ccnc(N[C@H]2CC[C@@H](CNC(=O)NC(c3ccccc3)c3ccccc3)CC2)n1 [compound 2435, N-[(cis-4-{[4-(dimethylamino)pyrimidin-2-yl]amino}cyclohexyl)methyl]-N′-(diphenylmethyl)urea] | 1 (Class 1: The value of percent of control at 10^−7 M was less than 40% or the value of IC50 was less than 50 nM.)
Cc1cc(Br)cc(C)c1NC(=O)NC[C@H]1CC[C@@H](Nc2nccc(N(C)C)n2)CC1 [compound 2436, N-(4-bromo-2,6-dimethylphenyl)-N′-[(cis-4-{[4-(dimethylamino)pyrimidin-2-yl]amino}cyclohexyl)methyl]urea] | 1 (Class 1: The value of percent of control at 10^−7 M was less than 40% or the value of IC50 was less than 50 nM.)
Cc1noc(-c2ccccc2)c1NC(=O)NC[C@H]1CC[C@@H](Nc2nccc(N(C)C)n2)CC1 [compound 2437] | 1 (Class 1: The value of percent of control at 10^−7 M was less than 40% or the value of IC50 was less than 50 nM.)
Cc1cc(NC(=O)NC[C@H]2CC[C@@H](Nc3nccc(N(C)C)n3)CC2)c(C(F)(F)F)o1 [compound 2438] | 3 (Class 3 The value of percent of control at 10^−7 M was more than 60% or the value of IC50 was more than 200 nM.)
CN(C)c1ccnc(N[C@H]2CC[C@@H](CNC(=O)Nc3cc(Cl)cc(Cl)c3)CC2)n1 [compound 2439] | 2 (Class 2: The value of percent of control at 10^−7 M was from 40% to 60% or the value of IC′50 was from 50 nM to 200 nM.)
CN(C)c1ccnc(N[C@H]2CC[C@@H](CNC(=O)Nc3cccc(Cl)c3Cl)CC2)n1 [compound 2440] | 1 (Class 1: The value of percent of control at 10^−7 M was less than 40% or the value of IC50 was less than 50 nM.)
Cc1ccc(NC(=O)NC[C@H]2CC[C@@H](Nc3nccc(N(C)C)n3)CC2)cc1 [compound 2441] | 3 (Class 3 The value of percent of control at 10^−7 M was more than 60% or the value of IC50 was more than 200 nM.)
CC(C)c1cccc(C(C)C)c1NC(=O)NC[C@H]1CC[C@@H](Nc2nccc(N(C)C)n2)CC1 [compound 2442] | 1 (Class 1: The value of percent of control at 10^−7 M was less than 40% or the value of IC50 was less than 50 nM.)

Source: patent publication US20050197350A1, “Novel quinoline, tetrahydroquinazoline, and pyrimidine derivatives and methods of treatment related to the use thereof” (TAISHO PHARMACEUTICAL CO., LTD., priority 2003, published 2005)
